Reference: patent US8962664B2, “Selective glycosidase inhibitors and uses thereof” (Simon Fraser University, priority 2006, dated 2015)
Entries after “also recorded” stand apart in the source; their conditions may differ.

Columns and labels:
[1] = system: tau phosphorylation levels in brain tissue; experiment: Decrease of rat brain tau phosphorylation levels (oral NAG-AE); format: in vivo, Sprague-Dawley rats; settings: rats, 200 mg/kg/day in drinking water for one day
Experimental: The effect of oral administration of (3aR,5R,6S,7R,7aR)-2-(ethylamino)-5-(hydroxymethyl)-5,6,7,7a-tetrahydro-3aH-pyrano[3,2-d]thiazole-6,7-diol (Compound 25, NAG-AE) on tau phosphorylation levels in brain tissue in Sprague-Dawley rats was measured. All animals were obtained from Charles-River as 5-week old healthy male Sprague-Dawley rats. Animals were given one week to acclimatize and at six weeks of age the appropriate treatment was initiated. Three animals received 200 mg/kg/day of NAG-AE in their drinking water for one day. Three additional animals received drinking water containing no NAG-AE and were used as controls. Immediately following the dosing period, all animals were sacrificed and brains were removed, stored, and processed as described in Example 29.
Western Blots. Samples were separated through 10% sodium dodecyl sulfate polyacrylamide gels (SDS-PAGE) and then transferred to nitrocellulose (Bio-Rad) membranes. Membranes were then blocked for 1 h at room temperature (RT) with 1% bovine serum albumin (BSA) in PBS containing 0.1% Tween-20 (Sigma) (PBS-T) and then subsequently probed with appropriate primary antibody delivered in 1% BSA in PBS-T for either 1 h at RT or overnight at 4° C. Membranes were then extensively washed with PBS-T, blocked again for 30 min with 1% BSA in PBS-T at RT and then probed with the appropriate HRP conjugated secondary antibody for 1 h at RT delivered in 1% BSA in PBS-T. Finally, the membranes were washed extensively and then developed with SuperSignal West Pico Chemiluminesence substrate (Pierce) and exposed to CL-XPosure Film (Pierce).
Antibodies. Mouse monoclonal α-Tau-5 which recognizes the central region of tau in a phosphorylation state independent manner was purchased from Lab Vision Corporation and used at a dilution of 1:500. Rabbit polyclonal […], and α-Tau [pS^422] recognize phosphorylated Thr-231, Ser-396, and Ser-422 respectively, and were purchased from Biosource International and used at a dilution of 1:1000. Mouse monoclonal α-O-GlcNAc (CTD110.6) which recognizes the O-GlcNAc monosaccharide modification was purchased from Covance and used at a dilution of 1:2500. Mouse monoclonal α-actin (clone AC-40) was purchased from Sigma and was used at a dilution of 1:1000.

[2] = system: levels of O-GlcNAc modification in brain and muscle tissue; experiment: Dose-dependent elevation of rat brain and muscle O-GlcNAc levels (IV); format: in vivo, Sprague-Dawley rats; settings: rats, seven hours
Experimental: The effect of intravenous (IV) administration of (3aR,5R,6S,7R,7aR)-5-(hydroxymethyl)-2-propyl-5,6,7,7a-tetrahydro-3aH-pyrano[3,2-d]thiazole-6,7-diol (Compound 54; hereinafter referred to as NAG-Bt) on levels of O-GlcNAc modification in brain and muscle tissue in Sprague-Dawley rats was measured. Animals were obtained from Charles-River as 5-week old healthy male Sprague-Dawley rats. Animals were given one week to acclimatize and at six weeks of age the appropriate treatment was initiated. Eight animals were given intravenous tail vein injections of various concentrations of NAG-Bt or vehicle alone (PBS); doses of NAG-Bt included 0, 2, 5, 10, 25, 50, 100, and 250 mg/kg. Seven hours later animals were sacrificed and tissues were removed from animals as quickly as possible to minimize post-mortem delay. Tissues were immediately frozen in liquid nitrogen and stored at −80° C. until further use. Homogenization of the tissues was carried out by manual grinding followed by homogenization in cell lysis buffer (50 mM Tris, pH 8.0, 1 mM PMSF, 0.1% NP-40, 1 mM NAG-Bt) using a tissue homogenizer (IKA) at 4° C. Insoluble cell debris was removed by centrifugation at 17,900×g for 20 minutes at 4° C. and the resulting supernatant was stored at −20° C. until use.
Western blotting of the samples thus obtained was carried out using the α-O-GlcNAc antibody (CTD110.6; Covance) and the α-actin antibody as described previously.^106 Equal amounts of homogenized brain and muscle tissue from animals treated with NAG-Bt or vehicle alone were separated by SDS-PAGE followed by probing with the primary a-O-GlcNAc antibody and an anti-IgM-mouse IgG-HRP conjugate. […] FIGS. 1C and 1D are Western blots of samples loaded in the upper panels (FIGS. 1A and 1B) probed using anti-β-actin mAb clone AC-40 followed by an anti-mouse IgG-HRP conjugate, and reveal equivalent sample loading.

[3] = IV 250 mg/kg, densitometry of Western blot

SMILES | brain tau phosphorylation at Ser-396, Thr-231, and Ser-422 ([1]; Western blot) | global levels of O-GlcNAc in brain ([1]; Western blot) | reduction of tau phosphorylation at Ser-396 ([1]; densitometry) | reduction of tau phosphorylation at Ser-422 ([1]; densitometry) | reduction of tau phosphorylation at Thr-231 ([1]; densitometry) | O-GlcNAc levels in brain and muscle tissue ([2]; IV 0 to 250 mg/kg, Western blot) | elevation of O-GlcNAc levels over baseline in brain tissue [2, 3] | elevation of O-GlcNAc levels over baseline in muscle tissue [2, 3] | minimum IV dose required for an observable effect in brain ([2]; IV, O-GlcNAc levels)
CCNC1=N[C@@H]2[C@@H](O)[C@H](O)[C@@H](CO)O[C@@H]2S1 [NAG-AE, (3aR,5R,6S,7R,7aR)-2-(ethylamino)-5-(hydroxymethyl)-5,6,7,7a-tetrahydro-3aH-pyrano[3,2-d]thiazole-6,7-diol] | reduction; also recorded: decreases | increases | ~3.1 fold | ~1.8 fold | ~2.7 fold |  |  |  | 
CCCC1=N[C@@H]2[C@@H](O)[C@H](O)[C@@H](CO)O[C@@H]2S1 [NAG-Bt, (3aR,5R,6S,7R,7aR)-5-(hydroxymethyl)-2-propyl-5,6,7,7a-tetrahydro-3aH-pyrano[3,2-d]thiazole-6,7-diol] |  |  |  |  |  | dose-dependent elevation | roughly 25 fold | roughly 10 fold | roughly 5 mg/kg
